The values that follow come from USRE37886E1, “1-(1,2-Disubstituted piperidinyl)-4-substituted piperazine derivatives” (Janssen Pharmaceuticals, N.V., priority 1995, dated 2002).

Assay [1] relates to substance-P induced relaxation of the pig coronary arteries. Put plainly: Antagonism of substance-P induced relaxation of the pig coronary arteries. The format is cell-based. The following applies: concentration at which 50% of the response to 10^−9 M substance P was inhibited, 30 minutes incubation, prostaglandin F2a precontracted segments. From the text: (§1) The compounds of the present invention are potent inhibitors of neurokinin-mediated effects, in particular those mediated via the NK1 receptor, and may therefore be described as tachykinin antagonists, especially as substance P antagonists, as indicated in vitro by the antagonism of substance P induced relaxation of pig coronary arteries which is described hereinafter. The binding affinity of the present compounds for the human, guinea-pig and gerbil neurokinin receptors may be determined in vitro in a receptor binding test using ^3H-substance-P as radioligand. The subject compounds also show substance-P antagonistic activity in vivo as may be evidenced by, for instance, the antagonism of substance P-induced plasma extravasation in guinea-pigs, or the antagonism of drug-induced emesis in ferrets (Watson et al., Br. J. Pharmacol. 115, 84-94, 1995).
Antagonism of substance-P induced relaxation of the pig coronary arteries
Segments of coronary artieries taken from pigs (killed by injection of an overdose of sodium pentobarbital) were inverted and mounted for recordign of isometric tension in organ baths (volume 20 ml) with the endothelium at the outside. The preparations were bathed in Krebs-Henseleit solution. The solution was kept at 37° C. and gassed with a mixture of O2/CO2 (95/5). After stabilisation of the preparations, prostaglandin F2a (10^−5 M) was administered to induce a contraction. This was repeated until contractivle responses became stable. Then prostaglandin F2a was again administered and substance P(3×10^−10 M and 10^−9 M cumulatively) was added. Substance P induced endothelium dependent relaxations. After washing away the agonists, a known concentratin of a compound of formula (I) was added. After an incubation period of 30 minutes, prostaglandin F2a ([…]) and the same concentrations of sbustance P as described above were again administered in the presence of the compound to be tested. Relaxations caused by substance P were expressed as relaxations under control conditions, and percent inhibition of the response to […] substance P was taken as a measure of the antagonistic activity of the compound to be tested. Table 6 lists the IC50 values (concentration at which 50% of the response to […] substance P was inhibited by the test compound) for the tested compounds.

Assay [2] has as its system substance P induced plasma extravasation. The assay can be described thus: Antagonism of substance P induced plasma extravasation in guinea-pigs. Type of assay: in vivo. The following applies: lowest active dose, female guinea-pigs; for LAD nose: compound 1 hour prior to substance P (2 mg/kg, femoral artery), blue colouring of nose 10 minutes after challenge; for LAD conjunctiva / LAD forepaws / LAD trachea / LAD urinary bladder: compound 1 hour prior to substance P; for LAD conjunctiva: blue colouring of conjunctiva 10 minutes after challenge; for LAD forepaws: blue colouring of forepaws 10 minutes after challenge; for LAD trachea: blue colouring of trachea 30 minutes after challenge; for LAD urinary bladder: blue colouring of urinary bladder 30 minutes after challenge.
Source text: as §1
Antagonism of substance P induced plasma extravasation in guinea-pigs
Plasma extravasation was induced by injection of substance P (2 mg/kg) in the femoral artery of female guinea-pigs. Evans Blue dye (30 mg/kg) was injected simultaneously. The test compound or solvent was administered 1 hour prior to substance P injection. 10 minutes after challenge, the aminals were checked for blue colouring (a direct measure for plasma extravasation) of the nose, the forepaws, and the conjectiva. 30 minutes after challenge, the animals were sacrificed by CO2 gas inhalation and checked for blue colouring of the trachea and the urinary bladder. […]

As to `Cc1cccc(C)c1NC(=O)CN1CCN(C2CCN(C(=O)c3cc(C(F)(F)F)cc(C(F)(F)F)c3)C(Cc3ccccc3)C2)CC1` (racemic) [Compound 59], the IC50 in assay [1] was found to be 1.2 nM. In assay [2], this compound yielded an LAD nose of 2.50 mg/kg, an LAD conjunctiva of 2.50 mg/kg, an LAD forepaws of 2.50 mg/kg and an LAD trachea of 5.00 mg/kg. In assay [2], this compound had an LAD urinary bladder of 5.00 mg/kg.
In assay [1], `Cc1ncc(CN2CCN(C3CCN(C(=O)c4cc(C(F)(F)F)cc(C(F)(F)F)c4)C(Cc4ccccc4)C3)CC2)o1` (racemic) [Compound 119] came in with an IC50 of 2.81 nM. In assay [2], this compound had an LAD nose of 2.50 mg/kg, an LAD conjunctiva of 2.50 mg/kg, an LAD forepaws of 2.50 mg/kg and an LAD trachea of 10.0 mg/kg. This compound yielded an LAD urinary bladder in assay [2] of more than 40 mg/kg.
In the case of “(−)-(A)-trans-4-[1-[3,5-bis(trifluoromethyl) benzoyl]-2-(phenylmethyl)-4-piperidinyl]-N-(2,6-dimethylphenyl)-1-piperazine acetamide [Compound 26]”, the IC50 in assay [1] turned out to be 2.75 nM. In assay [2], this compound yielded an LAD nose of 10.0 mg/kg, an LAD conjunctiva of 20.0 mg/kg, an LAD forepaws of 10.0 mg/kg and an LAD trachea of 40.0 mg/kg. In addition, the LAD urinary bladder in assay [2] stood at 20.0 mg/kg.
In assay [1], `Cc1cccc(C)c1NC(=O)CN1CCN(C2CCN(C(=O)c3cc(C(F)(F)F)cc(C(F)(F)F)c3)C(Cc3ccc(C(F)(F)F)cc3)C2)CC1.O=C(O)/C=C/C(=O)O` (single isomer, unassigned) [Compound 136] registered an IC50 of 0.31 nM. In assay [2], this compound registered an LAD nose of 2.50 mg/kg, an LAD conjunctiva of 2.50 mg/kg, an LAD forepaws of 2.50 mg/kg and an LAD trachea of 2.50 mg/kg. In addition, the LAD urinary bladder in assay [2] turned out to be 2.50 mg/kg.
As to `Cc1cccc(C)c1NC(=O)CN1CCN([C@H]2CCN(C(=O)c3cc(C(F)(F)F)cc(C(F)(F)F)c3)[C@@H](Cc3cc(F)cc(F)c3)C2)CC1` (racemic) [Compound 132, (±)-cis-4-[1-[3,5-bis (trifluoromethyl)benzoyl]-2-[(3,5-difluorophenyl)methyl]-4-piperidinyl]-N-(2,6-dimethylphenyl)-1-piperazineacetamide], half-maximal inhibition in assay [1] (Sus scrofa, 0.5 h) (IC50) was put at 2.08 nM. In assay [2], the LAD nose is 10.0 mg/kg, the LAD conjunctiva was found to be 10.0 mg/kg, the LAD forepaws is 10.0 mg/kg and the LAD trachea is 10.0 mg/kg. This compound also displayed an LAD urinary bladder in assay [2] of 10.0 mg/kg.
Turning to `Cc1ncc(Cn2c(N3CCN([C@H]4CCN(C(=O)c5cc(C(F)(F)F)cc(C(F)(F)F)c5)[C@@H](Cc5ccccc5)C4)CC3)nc3ccccc32)o1` (racemic) [Compound 70, (±)-cis-1-[3,5-bis(trifluoromethyl)benzoyl]-4-[4-[1-[(2-methyl-5-oxazolyl)methyl]-1H-benzimidazol-2-yl]-1-piperazinyl]-2-(phenylmethyl)piperidine], half-maximal inhibition in assay [1] (Sus scrofa, 0.5 h) (IC50) was put at 0.29 nM. In assay [2], this compound registered an LAD nose of 10.0 mg/kg, an LAD conjunctiva of 10.0 mg/kg, an LAD forepaws of 10.0 mg/kg and an LAD trachea of 10.0 mg/kg. Besides, the LAD urinary bladder in assay [2] amounted to 10.0 mg/kg.
In turn, `O=C(CN1CCN(C2CCN(C(=O)c3cc(C(F)(F)F)cc(C(F)(F)F)c3)C(Cc3ccccc3)C2)CC1)N1CCc2ccccc21` (racemic) [Compound 107] registered an IC50 in assay [1] of 0.96 nM. In assay [2], this compound came in with an LAD nose of 2.50 mg/kg, an LAD conjunctiva of 2.50 mg/kg, an LAD forepaws of 2.50 mg/kg and an LAD trachea of 2.50 mg/kg. In addition, the LAD urinary bladder in assay [2] stood at 10.0 mg/kg.
Turning to `COc1ccccc1N1CCN(C2CCN(C(=O)c3cc(C(F)(F)F)cc(C(F)(F)F)c3)C(Cc3ccccc3)C2)CC1` (racemic) [Compound 56], inhibition in assay [1] was half-maximal at 3.25 nM (IC50). In assay [2], this compound had an LAD nose of 10.0 mg/kg, an LAD conjunctiva of 10.0 mg/kg, an LAD forepaws of 10.0 mg/kg and an LAD trachea of 40.0 mg/kg. Moreover, the LAD urinary bladder in assay [2] amounted to 2.50 mg/kg.
In assay [1], “(+)-(B)-trans-4-[1-[3,5-bis(trifluoromethyl)benzoyl]-2-(phenylmethyl)-4-piperidinyl]-N-(2,6-dimethylphenyl)-1- piperazine acetamide [Compound 27]” yielded an IC50 of 0.13 nM. In assay [2], the LAD nose is listed as 0.63 mg/kg, the LAD conjunctiva came out at 0.63 mg/kg, the LAD forepaws came to 0.63 mg/kg and the LAD trachea is 0.63 mg/kg. The same compound showed an LAD urinary bladder in assay [2] of 0.63 mg/kg.
Compound `CCOCCn1c(N2CCN(C3CCN(C(=O)c4cc(C(F)(F)F)cc(C(F)(F)F)c4)C(Cc4ccccc4)C3)CC2)nc2ccccc21` (stereo not drawn) [Compound 22] displayed an IC50 in assay [1] of 0.37 nM. Also, in assay [2], the LAD nose came to 2.50 mg/kg, the LAD conjunctiva was 2.50 mg/kg, the LAD forepaws is 2.50 mg/kg and the LAD trachea is reported as 10.0 mg/kg. In addition, the LAD urinary bladder in assay [2] is listed as more than 40 mg/kg.
In the case of `Cc1cc(C)cc(COC(CN2CCN(C3CCN(C(=O)c4cc(C(F)(F)F)cc(C(F)(F)F)c4)C(Cc4ccccc4)C3)CC2)c2ccccc2)c1` (racemic) [Compound 87], half-maximal inhibition in assay [1] (IC50) required 1.9 nM. Moreover, in assay [2], the LAD nose worked out at 10.0 mg/kg, the LAD conjunctiva stood at 10.0 mg/kg, the LAD forepaws was 10.0 mg/kg and the LAD trachea is given as 10.0 mg/kg. The compound also showed an LAD urinary bladder in assay [2] of more than 40 mg/kg.
The compound `Cc1cc(C)cc(NC(=O)CN2CCN(C3CCN(C(=O)c4cc(C(F)(F)F)cc(C(F)(F)F)c4)C(Cc4ccccc4)C3)CC2)c1` (stereo not drawn) [Compound 50] registered a half-maximal inhibitory concentration (IC50) in assay [1] of 2.43 nM. Besides, in assay [2], the LAD nose was 10.0 mg/kg, the LAD conjunctiva is reported as 10.0 mg/kg, the LAD forepaws is on record as 10.0 mg/kg and the LAD trachea amounted to 10.0 mg/kg. In assay [2], the LAD urinary bladder is given as more than 40 mg/kg.
`O=C(C(c1ccccc1)N1CCN(C2CCN(C(=O)c3cc(C(F)(F)F)cc(C(F)(F)F)c3)C(Cc3ccccc3)C2)CC1)N1CCCC1` (mixture of isomers) [Compound 52] showed an IC50 in assay [1] of 1.1 nM. Also, in assay [2], the LAD nose is on record as 0.63 mg/kg, the LAD conjunctiva is 2.50 mg/kg, the LAD forepaws was 0.63 mg/kg and the LAD trachea is reported as 10.0 mg/kg. The compound also had an LAD urinary bladder in assay [2] of 10.0 mg/kg.
Take `Cc1ncc(Cn2c(N3CCN(C4CCN(C(=O)c5cc(C(F)(F)F)cc(C(F)(F)F)c5)C(Cc5ccccc5)C4)CC3)nc3ccccc32)o1` (racemic) [Compound 85]: in assay [1], the IC50 came out at 0.15 nM. Also, in assay [2], the LAD nose turned out to be 2.50 mg/kg, the LAD conjunctiva is on record as 2.50 mg/kg, the LAD forepaws is reported as 2.50 mg/kg and the LAD trachea is listed as 2.50 mg/kg. This compound displayed an LAD urinary bladder in assay [2] of 10.0 mg/kg.
The compound `O=C(CN1CCN(C2CCN(C(=O)c3cc(C(F)(F)F)cc(C(F)(F)F)c3)C(Cc3ccccc3)C2)CC1)NC1(c2ccccc2)CCCCC1` (stereo not drawn) [Compound 48] came in with an IC50 in assay [1] of 0.26 nM. For the same compound, in assay [2], the LAD nose was found to be 2.50 mg/kg, the LAD conjunctiva worked out at 2.50 mg/kg, the LAD forepaws is given as 2.50 mg/kg and the LAD trachea was determined as 2.50 mg/kg. The same compound returned an LAD urinary bladder in assay [2] of 2.50 mg/kg.

What is called IC50 is the concentration that gives 50% inhibition. Read a low IC50 as inhibition by little substance.
